Measurements from patent US20050187181A1 (University of Maryland, priority 2004, published 2005).

System: Na/K ATPase
Assay: Na/K ATPase assay (86Rb uptake into red blood cells);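 note: washed human red blood cells in K-free Ringer, test agent preincubated 20 min, then 86Rb uptake over 4 h at 37 °C counted as CPM per tube versus water control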
Conditions: for Na/K ATPase activity in erythrocytes: 6-thio inosine and 6-thio guanosine both 1 mM (FIG. 17); for Na/K ATPase stimulatory activity of adenosine analogs and metabolites: 1 mM (FIG. 4); for effect of equilibrative nucleoside transport inhibitor on purine stimulation of Na/K ATPase: dipyridamole 1 mM, NBTI 10 μM, purine 1 mM (FIGS. 12 and 13); for effect of phosphate analogs and bases on Na/K ATPase: FIG. 10; for effect of adenosine-receptor blocker on stimulation of Na/K ATPase by inosine, adenosine, guanosine, deoxyadenosine or deoxyguanosine: FIG. 11; for effect of adenosine-receptor blocker on adenosine stimulation of Na/K ATPase: equimolar doses added together with adenosine (FIG. 5); for stimulation of Na/K ATPase: human red blood cells, dose response (FIG. 3b, FIG. 8); for stimulation of Na/K ATPase in the presence of ouabain: partial inhibition / sub maximal doses of ouabain (FIG. 9); for effect of hormones on Na/K ATPase activity: doses of 10^-3 to 10^-9 M
Protocol: Human red blood cells of any group-type were donated for research by the Blood Bank of the University Of Maryland, School of Medicine. Five ml of red cells are washed 3 times in 40 ml of Potassium free Ringers solution (141 mM NaCl, 1 mM H2NaPO4, 0.5 mM CaCl2, 1 mM MgSO4, 4.5 mM glucose, 10 mM HEPES pH7.4). 50 μl of washed red cells are added to 220 μl of potassium free Ringers solution. 30, 10, 3 or 1 μl of ultra-filtrate, HPLC (high performance liquid chromatography) fraction, or adenosine, inosine, guanosine, deoxyadenosine, deoxyguanosine, caffeine, aminophylline, dipyridamole, NBTI, 6thioinosine, 6thioguanosine, or EHNA (all in buffer) is added to the mixture and incubated for 20 min. 4 μCi of 86RbCl is added and incubated for 4 hrs at 37° C. The mixture is than washed three times with 4° C. Potassium free Ringers solution and the cells counted in a gamma counter (Packard, Cobra II). Na/K ATPase activity is expressed as the CPM (counts per minute) (CPM/tube*4 hrs). The effects of ultra-filtrate or HPLC fractions on ^86Rb uptake into red cells are compared to equal volumes of either water (control) or, in some cases, 0.01 mM Ouabain (maximal inhibition).

CCCCCC[C@@H]([C@@H](C)O)n1cnc2c(N)ncnc21 (racemic) [EHNA, erythrohydroxy3-nonyl-adenine]
Na/K ATPase activity in erythrocytes: stimulate Na/K ATPase

Nc1nc2c(ncn2[C@@H]2O[C@H](CO)[C@@H](O)[C@H]2O)c(=S)[nH]1 [6-thioguanosine]
Na/K ATPase activity in erythrocytes: stimulate Na/K ATPase

OC[C@H]1O[C@@H](n2cnc3c(S)ncnc32)[C@H](O)[C@@H]1O [6-thioinosine]
Na/K ATPase activity in erythrocytes: stimulate Na/K ATPase

Nc1ncnc2c1ncn2[C@@H]1O[C@H](COP(=O)(O)OP(=O)(O)O)[C@@H](O)[C@H]1O [ADP]
Na/K ATPase stimulatory activity of adenosine analogs and metabolites: little or no Na/K ATPase stimulatory activity

Nc1ncnc2c1ncn2[C@@H]1O[C@H](COP(=O)(O)O)[C@@H](O)[C@H]1O [AMP]
Na/K ATPase stimulatory activity of adenosine analogs and metabolites: little or no Na/K ATPase stimulatory activity

Nc1ncnc2c1ncn2[C@@H]1O[C@H](COP(=O)(O)OP(=O)(O)OP(=O)(O)O)[C@@H](O)[C@H]1O [ATP]
Na/K ATPase stimulatory activity of adenosine analogs and metabolites: little or no Na/K ATPase stimulatory activity

O=[N+]([O-])c1ccc(CSc2ncnc3c2ncn3[C@@H]2O[C@H](CO)[C@@H](O)[C@H]2O)cc1 [NBTI, S-(4-nitrobenzyl)-6-thioinosine]
effect of equilibrative nucleoside transport inhibitor on purine stimulation of Na/K ATPase: blocked stimulation of Na/K ATPase by any of the five purines tested

Nc1ncnc2nc[nH]c12 [adenine]
Na/K ATPase stimulatory activity of adenosine analogs and metabolites: little or no Na/K ATPase stimulatory activity | effect of phosphate analogs and bases on Na/K ATPase: None of the purine analogs significantly affected Na/K ATPase

Cn1c(=O)c2[nH]cnc2n(C)c1=O [aminophylline]
effect of adenosine-receptor blocker on stimulation of Na/K ATPase by inosine, adenosine, guanosine, deoxyadenosine or deoxyguanosine: Neither of these adenosine-receptor blockers had a significant effect on stimulation of Na/K ATPase | effect of adenosine-receptor blocker on adenosine stimulation of Na/K ATPase: did not affect the ability of adenosine to stimulate Na/K ATPase

Cn1c(=O)c2c(ncn2C)n(C)c1=O [caffeine]
effect of adenosine-receptor blocker on stimulation of Na/K ATPase by inosine, adenosine, guanosine, deoxyadenosine or deoxyguanosine: Neither of these adenosine-receptor blockers had a significant effect on stimulation of Na/K ATPase | effect of adenosine-receptor blocker on adenosine stimulation of Na/K ATPase: did not affect the ability of adenosine to stimulate Na/K ATPase

Nc1ncnc2c1ncn2[C@H]1C[C@H](O)[C@@H](CO)O1 [deoxyadenosine]
relative effectiveness at stimulating Na/K ATPase (10^-3 Molar (FIG. 8)): less effective than guanosine and inosine, but more effective than deoxyguanosine | stimulation of Na/K ATPase: stimulated Na/K ATPase in a dose-dependent manner | stimulation of Na/K ATPase in the presence of ouabain: overcame partial inhibition by ouabain

Nc1ccn([C@H]2C[C@H](O)[C@@H](CO)O2)c(=O)n1 [deoxycytidine]
effect of pyrimidines on Na/K ATPase (doses ranging from 10^-3 to 10^-10 M): had no effect in the assay

Nc1nc2c(ncn2[C@H]2C[C@H](O)[C@@H](CO)O2)c(=O)[nH]1 [deoxyguanosine]
stimulation of Na/K ATPase: stimulated Na/K ATPase in a dose-dependent manner | stimulation of Na/K ATPase in the presence of ouabain: overcame partial inhibition by ouabain

OCCN(CCO)c1nc(N2CCCCC2)c2nc(N(CCO)CCO)nc(N3CCCCC3)c2n1 [dipyridamole]
effect of equilibrative nucleoside transport inhibitor on adenosine stimulation of Na/K ATPase (dipyridamole 1 mM (FIG. 6)): blocked adenosine stimulation of Na/K ATPase | effect of equilibrative nucleoside transport inhibitor on purine stimulation of Na/K ATPase: blocked stimulation of Na/K ATPase by any of the five purines tested

NCCc1ccc(O)c(O)c1 [dopamine]
effect of hormones on Na/K ATPase activity: had no effect on Na/K ATPase activity

CNC[C@H](O)c1ccc(O)c(O)c1 [epinephrine]
effect of hormones on Na/K ATPase activity: had no effect on Na/K ATPase activity

Nc1nc2nc[nH]c2c(=O)[nH]1 [guanine]
effect of phosphate analogs and bases on Na/K ATPase: None of the purine analogs significantly affected Na/K ATPase

O=c1[nH]cnc2nc[nH]c12 [hypoxanthine]
Na/K ATPase stimulatory activity of adenosine analogs and metabolites: little or no Na/K ATPase stimulatory activity | effect of phosphate analogs and bases on Na/K ATPase: None of the purine analogs significantly affected Na/K ATPase

NC[C@H](O)c1ccc(O)c(O)c1 [norepinephrine]
effect of hormones on Na/K ATPase activity: had no effect on Na/K ATPase activity
